Where “and” joins values, the source holds several entries; their conditions need not be identical. Identical values can stand only once.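 Growth conditions: 96-well plates. Treatment: test compound, 48 hours, 5 concentrations. Analysis: linear interpolation between bracketing concentrations; unreached endpoints set to highest concentration. GI50: concentration for 50% inhibition of growth. The concentration for full growth arrest is given as TGI.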 Bounds are passed on as bounds.

Consider 20 compounds from PubChem BioAssay (NCI).

Test systems include RXF-631 renal; LXFL 529 NSCLC; DMS 114 small cell lung; SNB-78 CNS; XF 498 CNS; DLD-1 colon; DMS 273 small cell lung; HOP-18 NSCLC; MDA-N.
Common to all, as to assay: NCI tumour cell line growth inhibition, 48 h

For the compound `CC(=O)OCC1OC(n2c(=S)n(-c3ccccc3)c(=O)c3cc(Br)ccc32)C(OC(C)=O)C(OC(C)=O)C1OC(C)=O` (configuration not stated), the TGI with RXF-631 renal was > 100 µM; with LXFL 529 NSCLC it was > 100 µM; in the assay on DMS 114 small cell lung, > 100 µM; in the assay with SNB-78 CNS, > 100 µM; with XF 498 CNS, 61.2 µM and > 100 µM; in the assay with DLD-1 colon, > 100 µM. Further, the TGI with DMS 273 small cell lung is > 100 µM. In addition, the GI50 is 41.5 µM and > 10 µM with SNB-78 CNS; 23.6 µM and > 100 µM in the assay on XF 498 CNS.
For `CC(C)(C)c1cc(-c2c3nc(c(-c4cc(C(C)(C)C)cc(C(C)(C)C)c4)c4ccc([nH]4)c(-c4cc(C(C)(C)C)cc(C(C)(C)C)c4)c4nc(c(-c5cc(C(C)(C)C)cc(C(C)(C)C)c5)c5ccc2[nH]5)C=C4)C=C3)cc(C(C)(C)C)c1`, the TGI with RXF-631 renal, in the assay on LXFL 529 NSCLC, in the assay with DMS 114 small cell lung, in the assay with SNB-78 CNS, in the assay with XF 498 CNS and with DLD-1 colon was > 100 µM throughout. Besides, the TGI in the assay with DMS 273 small cell lung and in the assay on HOP-18 NSCLC was > 100 µM in each case.
In the case of `C/C(=C1/N=C(c2ccccc2)OC1=O)c1ccccc1`, the TGI in the assay on MDA-N is > 100 µM.
For `Cc1ccccc1NC(=O)C(=O)CC(=O)C1CCOC1=O` (configuration not stated), the TGI in the assay with LXFL 529 NSCLC, in the assay on DMS 114 small cell lung, in the assay with SNB-78 CNS, in the assay on XF 498 CNS, with DLD-1 colon and in the assay on DMS 273 small cell lung was > 100 µM in each case. Also, in the assay with HOP-18 NSCLC, the TGI was > 100 µM.
In the case of `COc1ccc(C(=O)C/C(=N/NC(N)=S)C(=O)Nc2ccccc2)cc1`, the TGI with LXFL 529 NSCLC, in the assay with DMS 114 small cell lung, in the assay on SNB-78 CNS, in the assay with XF 498 CNS, in the assay on DLD-1 colon and in the assay with DMS 273 small cell lung was > 100 µM throughout. In the assay on HOP-18 NSCLC, the TGI is > 100 µM.
Take `COC(=O)[C@@H]1[C@H](O)[C@H](C)[C@H](O)[C@H](C)/C=C\C=C(C)C(=O)Nc2c(C)c(OC(C)=O)c3c(c2O)C(=O)C(C)=C2OCOC(=C23)C(C)=C[C@@](C)(O)[C@H](O)[C@@H](C)[C@H]1OC(C)=O`: the TGI with MDA-N turned out to be 41.9 µM.
`Cc1cccc(C)c1NC(=O)CCCC(=O)C(C#N)c1ccc(Cl)cc1` (configuration not stated): the TGI in the assay with LXFL 529 NSCLC, with DMS 114 small cell lung, in the assay with SNB-78 CNS, with DLD-1 colon, in the assay with DMS 273 small cell lung and with HOP-18 NSCLC was > 100 µM throughout.
Regarding `C[CH2][Ge]([CH2]C)([CH2]C)[O]C(=O)C([O][Ge]([CH2]C)([CH2]C)[CH2]C)c1ccccc1` (configuration not stated), the GI50 in the assay with LXFL 529 NSCLC is 9.67 µM; with DMS 114 small cell lung, 5.84 µM; in the assay on DLD-1 colon, 20.3 µM; with HOP-18 NSCLC, 26.7 µM. Moreover, the TGI was 44.9 µM with LXFL 529 NSCLC, 31.6 µM with DMS 114 small cell lung, > 100 µM with DLD-1 colon and 59 µM with HOP-18 NSCLC.
With `Nc1cc(N)cc(Cc2ccccc2)c1`, in the assay on MDA-N, the TGI was > 100 µM.
Regarding `O=C1[C@@H]2C(c3ccncc3)=NO[C@@H]2C(=O)N1c1ccc(Cc2ccc(N3C(=O)[C@H]4C(c5ccncc5)=NO[C@H]4C3=O)cc2)cc1`, the TGI in the assay with RXF-631 renal, with LXFL 529 NSCLC, in the assay on DMS 114 small cell lung, in the assay with SNB-78 CNS, with DLD-1 colon and in the assay on DMS 273 small cell lung was > 100 µM each time. The TGI in the assay on HOP-18 NSCLC was > 100 µM.
Turning to `CN(C)CCC(=O)N1CCc2c([nH]c3ccccc23)C1c1cccnc1` (configuration not stated), the TGI in the assay with RXF-631 renal, in the assay on LXFL 529 NSCLC, in the assay with DMS 114 small cell lung, in the assay on SNB-78 CNS, in the assay with XF 498 CNS and in the assay with DLD-1 colon was > 100 µM throughout. The TGI with DMS 273 small cell lung and in the assay with HOP-18 NSCLC was > 100 µM each time.
With `O=[N+]([O-])c1ccc2nc3ccscc-3c2c1`, the TGI in the assay on RXF-631 renal is > 100 µM; in the assay with LXFL 529 NSCLC it was 27.3 µM; in the assay with DMS 114 small cell lung it was 39.6 µM; with SNB-78 CNS, 90 µM; in the assay with XF 498 CNS it was 87.2 µM; with DLD-1 colon, > 100 µM. Moreover, the TGI in the assay on DMS 273 small cell lung and in the assay with HOP-18 NSCLC was > 100 µM in each case.
On to `NCCn1cnc2nc(NC(=O)c3ccccc3)[nH]c(=O)c21`, for which the TGI in the assay on RXF-631 renal, in the assay with LXFL 529 NSCLC, in the assay on DMS 114 small cell lung, in the assay with SNB-78 CNS, with DLD-1 colon and with HOP-18 NSCLC was > 100 µM throughout.
For the compound `CCCCCCCC(=O)NS(=O)(=O)c1ccccc1`, in the assay on MDA-N, the TGI is > 100 µM.
On to `COc1ccc(/C(=C\c2cc(OC)c(OC)c(OC)c2)C(=O)O)cc1`, for which the TGI with LXFL 529 NSCLC was > 100 µM; with DMS 114 small cell lung, 67.2 µM; with SNB-78 CNS, > 100 µM; in the assay on XF 498 CNS, 62.3 µM; in the assay with DLD-1 colon, > 100 µM; with DMS 273 small cell lung, > 100 µM. In addition, in the assay on HOP-18 NSCLC, the TGI is > 100 µM.
Regarding `Cc1nnc2n1N=C(c1ccc(-c3ccc([N+](=O)[O-])cc3)o1)CS2`, the TGI with LXFL 529 NSCLC, in the assay on SNB-78 CNS, in the assay with DLD-1 colon and in the assay with DMS 273 small cell lung was > 100 µM in each case.
For the compound `Clc1ccc(N/N=C(\c2ccccc2)c2ccccn2)nc1`, the TGI in the assay with MDA-N came out at 26.5 µM.
Consider `C=C[Si](C)(C)COC(=O)/C(C#N)=C/C=C/c1ccccc1`, for which the TGI in the assay with LXFL 529 NSCLC, in the assay on DMS 114 small cell lung, in the assay with SNB-78 CNS, with DLD-1 colon, with DMS 273 small cell lung and in the assay with HOP-18 NSCLC was > 100 µM each time.
For `CCOC(=O)C1=C(c2ccccc2)NC(c2ccccc2)=C(C(=O)OCC)c2c1c(=O)cc[nH]c2=O`, the TGI in the assay with RXF-631 renal, with LXFL 529 NSCLC, in the assay on SNB-78 CNS, in the assay on XF 498 CNS, in the assay with DLD-1 colon and with DMS 273 small cell lung was > 100 µM in each case.
For the compound `CCOC(=O)C1=C(C)N(NC(=O)OC)C2(N)N(NC(=O)OC)C(C)=C(C(=O)OCC)C12C#N` (configuration not stated), the TGI in the assay with LXFL 529 NSCLC, with DMS 114 small cell lung, in the assay with XF 498 CNS, with DLD-1 colon and in the assay on DMS 273 small cell lung was > 100 µM throughout.
